We go through six molecules from PubChem BioAssay AID200 (DTP/NCI, 2004).

The subject of the assay is B6C3F1 mice, B16 melanoma ip, median survival T/C. In words: NCI In Vivo Anticancer Drug Screen. Data for tumor model B16 Melanoma (intraperitoneal) in B6C3F1 mice. The conditions noted are these: endpoint: median survival time, higher = longer survival. A digest of the protocol: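 Tumor-bearing mice received test compound; a separate group got vehicle only. Survival was then compared, with results reported as treated over control.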

Several values for one entry are separate records, joined by “and”; a condition that tells them apart may be missing. Identical values can stand only once. Inconclusive results and toxic doses are left out.

Take `CCSC(=O)N1c2ccc(OC)cc2C=CC1C#N` (configuration not stated): the T/C was 121 % of control and 95 % of control (dose: 50.0 mg/kg/injection, schedule: Q01DX009 (ip), vehicle: saline with Tween-80); 124 % of control and 107 % of control (dose: 100.0 mg/kg/injection, schedule: Q01DX009 (ip), vehicle: saline with Tween-80); 110 % of control (dose: 200.0 mg/kg/injection, schedule: Q01DX009 (ip), vehicle: saline with Tween-80).
For the molecule `N#Cc1ccc(NC(=O)Nc2nccs2)cc1`, where the note is “dose: 100.0 mg/kg/injection, schedule: Q01DX009 (ip), vehicle: distilled water + Tween-80”, the T/C was 150 % of control.
On to `CC1=C2C(=CO[C@H](C)[C@H]2C)C(=O)C(C(=O)O)=C1O`, for which the T/C was 105 % of control (dose: 6.25 mg/kg/injection, schedule: Q01DX009 (ip), vehicle: Klucel (hydroxypropylcellulose) (HPC)); 108 % of control (dose: 6.25 mg/kg/injection, schedule: Q01DX009 (ip), vehicle: saline); 102 % of control (dose: 12.5 mg/kg/injection, schedule: Q01DX009 (ip), vehicle: Klucel (hydroxypropylcellulose) (HPC)); 100 % of control (dose: 12.5 mg/kg/injection, schedule: Q01DX009 (ip), vehicle: saline); 100 % of control (dose: 25.0 mg/kg/injection, schedule: Q01DX009 (ip), vehicle: saline); 98 % of control (dose: 50.0 mg/kg/injection, schedule: Q01DX009 (ip), vehicle: saline).
On to `CCOC(=O)Nc1cc2c(c(N)n1)N=C(c1ccccc1)CN2`, for which the T/C (dose: 1.25 mg/kg/injection, schedule: Q01DX009 (ip), vehicle: saline with Tween-80) was 96 % of control; the T/C (dose: 2.5 mg/kg/injection, schedule: Q01DX009 (ip), vehicle: saline with Tween-80) was 102 % of control; the T/C (dose: 5.0 mg/kg/injection, schedule: Q01DX009 (ip), vehicle: saline with Tween-80) is 107 % of control.
Consider `CC(=O)OC1C(O)C(C)OC(OC2C(OC(=O)C3CCC4C(C3)OC3(CC(OC(=O)/C=C/c5ccccc5)C(C)CO3)C43CO3)OC(C)C(O)C2OC(C)=O)C1O` (configuration not stated), for which the T/C is 111 % of control (dose: 0.38 mg/kg/injection, schedule: Q03HX024 (ip), vehicle: other); 120 % of control (dose: 0.75 mg/kg/injection, schedule: Q03HX024 (ip), vehicle: other); 111 % of control (dose: 0.9 mg/kg/injection, schedule: Q01DX005 (iv), vehicle: other); 122 % of control (dose: 1.0 mg/kg/injection, schedule: Q01DX009 (ip), vehicle: distilled water + alcohol); 120 % of control and 122 % of control (dose: 1.0 mg/kg/injection, schedule: Q01DX009 (ip), vehicle: other); 116 % of control (dose: 1.0 mg/kg/injection, schedule: Q01DX009 (ip), vehicle: saline + Tween-80 + alcohol). The T/C is, setting by setting: (dose: 1.0 mg/kg/injection, schedule: Q01DX009 (ip), vehicle: saline + alcohol) 110 % of control and 115 % of control; (dose: 1.13 mg/kg/injection, schedule: Q03HX008 (ip), vehicle: other) 123 % of control; (dose: 1.8 mg/kg/injection, schedule: Q01DX005 (iv), vehicle: other) 103 % of control; (dose: 2.0 mg/kg/injection, schedule: Q01DX009 (ip), vehicle: distilled water + alcohol) 158 % of control; (dose: 2.0 mg/kg/injection, schedule: Q01DX009 (ip), vehicle: other) 152 % of control; (dose: 2.0 mg/kg/injection, schedule: Q01DX009 (ip), vehicle: saline + Tween-80 + alcohol) 157 % of control. The T/C (dose: 2.25 mg/kg/injection, schedule: Q01DX001 (iv), vehicle: other) is 114 % of control; the T/C (dose: 2.25 mg/kg/injection, schedule: Q03HX008 (ip), vehicle: other) was 119 % of control; the T/C (dose: 3.0 mg/kg/injection, schedule: Q04DX003 (ip), vehicle: other) was 122 % of control; the T/C (dose: 3.6 mg/kg/injection, schedule: Q01DX005 (iv), vehicle: other) is 107 % of control; the T/C (dose: 4.0 mg/kg/injection, schedule: Q01DX009 (ip), vehicle: distilled water + alcohol) is 184 % of control; the T/C (dose: 4.0 mg/kg/injection, schedule: Q01DX009 (ip), vehicle: other) is 175 % of control. The T/C was 185 % of control (dose: 4.0 mg/kg/injection, schedule: Q01DX009 (ip), vehicle: saline + Tween-80 + alcohol); 163 % of control (dose: 4.0 mg/kg/injection, schedule: Q01DX009 (ip), vehicle: saline); 102 % of control (dose: 4.0 mg/kg/injection, schedule: Q01DX009 (oral), vehicle: other); 108 % of control (dose: 4.0 mg/kg/injection, schedule: Q01DX009 (sc), vehicle: other); 117 % of control (dose: 4.5 mg/kg/injection, schedule: Q01DX001 (ip), vehicle: other); 105 % of control (dose: 4.5 mg/kg/injection, schedule: Q01DX001 (iv), vehicle: other). For the same molecule, the T/C is, setting by setting: (dose: 7.2 mg/kg/injection, schedule: Q01DX005 (iv), vehicle: other) 119 % of control; (dose: 8.0 mg/kg/injection, schedule: Q01DX009 (ip), vehicle: distilled water + alcohol) 176 % of control; (dose: 8.0 mg/kg/injection, schedule: Q01DX009 (ip), vehicle: other) 158 % of control and 174 % of control; (dose: 8.0 mg/kg/injection, schedule: Q01DX009 (ip), vehicle: saline + Tween-80 + alcohol) 182 % of control; (dose: 8.0 mg/kg/injection, schedule: Q01DX009 (ip), vehicle: saline) 161 % of control; (dose: 8.0 mg/kg/injection, schedule: Q01DX009 (oral), vehicle: other) 104 % of control. In addition, the T/C reads like this: (dose: 8.0 mg/kg/injection, schedule: Q01DX009 (sc), vehicle: other) 106 % of control; (dose: 8.0 mg/kg/injection, schedule: Q02DX005 (ip), vehicle: saline + Tween-80 + alcohol) 158 % of control; (dose: 9.0 mg/kg/injection, schedule: Q01DX001 (ip), vehicle: other) 114 % of control; (dose: 9.0 mg/kg/injection, schedule: Q01DX001 (iv), vehicle: other) 111 % of control; (dose: 12.0 mg/kg/injection, schedule: Q04DX003 (ip), vehicle: saline + alcohol) 124 % of control; (dose: 14.4 mg/kg/injection, schedule: Q01DX005 (ip), vehicle: other) 160 % of control. Also, the T/C was 113 % of control (dose: 14.4 mg/kg/injection, schedule: Q01DX005 (iv), vehicle: other); 150 % of control (dose: 16.0 mg/kg/injection, schedule: Q01DX009 (ip), vehicle: distilled water + alcohol); 177 % of control and 188 % of control (dose: 16.0 mg/kg/injection, schedule: Q01DX009 (ip), vehicle: other); 179 % of control (dose: 16.0 mg/kg/injection, schedule: Q01DX009 (ip), vehicle: saline + Tween-80 + alcohol); 102 % of control (dose: 16.0 mg/kg/injection, schedule: Q01DX009 (oral), vehicle: other); 114 % of control (dose: 16.0 mg/kg/injection, schedule: Q01DX009 (sc), vehicle: other). Besides, the T/C by setting is: (dose: 16.0 mg/kg/injection, schedule: Q02DX005 (ip), vehicle: saline + Tween-80 + alcohol) 166 % of control; (dose: 16.0 mg/kg/injection, schedule: Q02DX005 (ip), vehicle: saline + alcohol) 155 % of control; (dose: 18.0 mg/kg/injection, schedule: Q01DX001 (ip), vehicle: other) 120 % of control; (dose: 18.0 mg/kg/injection, schedule: Q01DX001 (iv), vehicle: other) 117 % of control; (dose: 32.0 mg/kg/injection, schedule: Q01DX009 (oral), vehicle: other) 101 % of control; (dose: 32.0 mg/kg/injection, schedule: Q01DX009 (sc), vehicle: other) 112 % of control. For the same molecule, the T/C by setting is: (dose: 32.0 mg/kg/injection, schedule: Q02DX005 (ip), vehicle: saline + alcohol) 154 % of control; (dose: 36.0 mg/kg/injection, schedule: Q01DX001 (ip), vehicle: other) 119 % of control; (dose: 96.0 mg/kg/injection, schedule: Q04DX003 (ip), vehicle: saline + Tween-80 + alcohol) 94 % of control.
Turning to `CC(OCc1ccccc1)C(NC(=O)OC(C)(C)C)C(=O)O` (configuration not stated), the T/C reads like this: (dose: 100.0 mg/kg/injection, schedule: Q01DX009 (ip), vehicle: Klucel (hydroxypropylcellulose) (HPC)) 92 % of control; (dose: 200.0 mg/kg/injection, schedule: Q01DX009 (ip), vehicle: Klucel (hydroxypropylcellulose) (HPC)) 100 % of control; (dose: 400.0 mg/kg/injection, schedule: Q01DX009 (ip), vehicle: Klucel (hydroxypropylcellulose) (HPC)) 96 % of control.
